The series relates to Clostridium acetobutylicum. The series can be described thus: Toxicity study: growth inhibition and cell viability. It is filed as cell-based. The settings on record: up to 1:1 volume ratios of extractant to media. The text has this: Growth inhibition and cell viability was examined in a study using up to 1:1 volume ratios of extractant to media.

Experimental findings from patent publication US9856427B2, “Method to convert fermentation mixture into fuels” (The Regents of the University of California, priority 2011, dated 2018) are described below.

Structures are written as SMILES.

On to `CCCC(=O)OCC(COC(=O)CCC)OC(=O)CCC` [glyceryl tributyrate], for which the “toxicity to Clostridium acetobutylicum (growth inhibition and cell viability)” value is recorded as “non-toxic”.
